This is an account of results in PMC11767819, “Drug Screening of Flavonoids as Potential VEGF Inhibitors Through Computational Docking and Cell Models” (Molecules, 2025).

The test system of data set [1] is HaCaT cells. In words: Wound closure (wound healing) assay, VEGF-induced. The class given is cell-based. The conditions noted are these: Homo sapiens, 20 h, read-out: IC50 of inhibition of wound recovery rate. As for the experimental part: Photos of each cell scrape at 0 (At0) and 20 h (At20) were captured with microscope and imaging software (Zen, https://www.zeiss.com/microscopy/en/home.html, accessed on 1 September 2024) at a 10× magnification. […] A: positive control, Avastin; F: farrerol; O: ononin; E: (−)-epicatechin.
A wound closure assay was performed on cultured HaCaT cells to study cell migration in vitro. Procedures were described previously by Guo et al.. Briefly, HaCaT cells were seeded onto a 12-well plate with a density of 3 × 10^5 cells/well. Treatments were given when cells grew to full confluency. After serum starvation, sterile 200 μL pipette tips were used to make a vertical and a horizontal scrape on the cell monolayer in a consistent manner. Cells were washed with PBS and treated with drugs at various concentrations. Photos of each cell scrape at 0 (At0) and 20 h (At20) were captured with a microscope and imaging software (Zen) at a 10× magnification. The software TScratch (CSE lab, Zurich, Switzerland, https://github.com/cselab/TScratch, accessed on 1 September 2024) was used to analyze the open area of each scrape photo at different timepoints. Quantification of the recovery rate of the wound was calculated based on the following equation: wound closure (%) = (At0 − At20)/At20 × 100%.

Data set [2] in a line: Chemical stability test through HPLC analysis. Type of data set: physicochemical. The conditions noted are these: for Inter-Day RSD / Inter-Day Mean Peak Area: 6 consecutive days; for Inter-Day RSD / Intra-Day RSD: n = 6; for Inter-Day Mean Peak Area / Intra-Day Mean Peak Area: n = 6, 210 nm; for Intra-Day RSD / Intra-Day Mean Peak Area: same day; for Stability in aqueous solution (in words): acidic, neutral and basic conditions, HPLC. From the text:
Chemical degradation has been a major factor resulting in molecular hydrolysis, oxidation, light-catalyzed degradation and so on. Therefore, stability in aqueous solution, including acidic, neutral and basic conditions, has become a crucial requirement for a promising drug candidate. Prior to the biochemical assay, three phytochemicals were subjected to HPLC analysis to determine their stabilities in various solutions. Glycine buffer (pH 8–11), PBS (pH 7–8) and acetate buffer (pH 4–6) were employed to cover the main pH ranges. […].
The stability test was validated by determining the intra-day and inter-day variability through HPLC analysis, which was performed on an Agilent 1200 Liquid Chromatography (Santa Clara, CA, USA) equipped with an ODS C18 column (4.6 mm × 250 mm). Glycine buffer (pH 8–11), PBS (pH 7–8) and acetate buffer (pH 4–6) were employed to cover main pH ranges. Stock solutions at a concentration of 10 mM of the test compounds were prepared in DMSO and stored at −20 °C, while working concentrations were prepared at 1–5 μM solution in DMSO and buffers. Chromatography was conducted through the ORBAX XDB-C18 column (Agilent, 4.6 × 50 mm, 1.8 μm). The mobile phase was a mixture of water and acetonitrile (95:5, v/v), and the elution time was 15 min. The mobile phase flow rate and injection volume were 1.0 mL/min and 10 μL, respectively. Analytes were detected at a 210 nm wavelength. The intra-day and inter-day stability was calculated by analyzing six replicates of the standard solution of the two analytes during a single day and six replicates of the samples detected on six consecutive days, respectively. Thereafter, the relative standard deviation (RSD) was determined as a measurement of stability.

Data set [3] has as its system HaCaT cells. Nature of the data set: MTT cell viability assay. The conditions noted are these: concentrations up to 100 µM, 24 h. Type of data set: cell-based, human. As for the experimental part:
Cell viability was assessed with the MTT assay to evaluate the potential toxicity effect of the tested drugs. HaCaT cells were seeded onto 96-well plates for 24 h prior to drug treatments. After incubations for 24 h, an MTT solution in a final concentration of 0.5 mg/mL was added to each well. Following another 3 h of incubation, DMSO solvent was used to dissolve the purple formazan crystals generated in each well. The absorbance of the samples at 570 nm was measured using a microplate reader (Thermo Fisher Scientific). The cell viability was calculated as follows: cytotoxicity (%) = (experimental value − low control)/(high control − low control) × 100%.
(In general: Tetrazolium dyes change colour on reduction, which living cells bring about.)

For the next data set, the target named is T1, VEGF protein (Homo sapiens, UniProt P15692).
T1 construct: purchased MCE
T1 sequence (P15692 1-191 isoform P15692-4): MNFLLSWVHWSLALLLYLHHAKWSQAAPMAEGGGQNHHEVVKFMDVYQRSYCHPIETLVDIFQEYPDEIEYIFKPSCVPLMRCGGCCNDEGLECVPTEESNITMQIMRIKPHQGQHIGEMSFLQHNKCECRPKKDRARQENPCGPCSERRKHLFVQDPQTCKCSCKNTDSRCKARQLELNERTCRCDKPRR
Nature of the data set: Ultrafiltration-based affinity assay. Type of data set: binding. The conditions noted are these: ligand 0.02 µM, VEGF protein 0.02 µM, 4 °C, 2 h, n = 4. As for the experimental part: Caco-2 cells were cultured until fully differentiated after being cultured for 21 days, and the integrity of cell monolayer was determined by the transepithelial electrical resistance (TEER). * p < 0.05. […] Red curve: initial concentration of chemicals; black curve: concentration of chemicals binding to the protein (Cpre − Cpost). n = 4.
The binding affinity was evaluated through the previous approach. Specifically, the tested ligands at 0.02 µM were mixed with or without 0.02 µM of the VEGF protein (MCE, Monmouth Junction, NJ, USA) and incubated in Milli-Q water (Burlington, MA, USA) at 4 °C for 2 h. The mixture was transferred to a 0.5 mL ultrafiltration tube (2000 MW cutoff; Sartorius Stedim Biotech, Gottingen, Germany). After multiple rounds of centrifugation, the supernatant was further analyzed through HPLC investigation, as described above in Section 4.6.

The test system of the next data set is NF-κB in RAW 264.3 cells. Nature of the data set: Luciferase activity of NF-κB, VEGF-induced. Type of data set: cell-based. The conditions noted are these: chemicals 1, 10 and 25 µM, avastin 10 ng/mL. As for the experimental part:
The luciferase of NK-κB activity was performed following a previous report. Briefly, RAW 264.3 cells were transfected with pNF-κB (Thermo Fisher Scientific) using jetPRIME and incubated for 24 h. The refresh medium was replaced every four hours, and drug treatments were added twice after 24 h or 48 h. Upon completion of the reaction, the chemical luminescent intensity was determined by a luminometer (Promega, WI, USA) and normalized by protein concentrations.

The test system of a further data set is endothelial cells. As to conditions: cell proliferation and migration in endothelial cells, phosphorylation of PI3-K/Akt, JNK and eNOS; cited from earlier work.
The next data set deals with tumor growth. The conditions noted are these: nude mice; cited from earlier work.

Like-named read-outs stand apart in the source and are kept apart here.

One may read the IC50 as the concentration that gives 50% inhibition. On to `Oc1cc(O)c2c(c1)O[C@H](c1ccc(O)c(O)c1)[C@H](O)C2` [(−)-epicatechin], for which the IC50 with HaCaT cells [1] (HaCaT cells, VEGF-induced) was 9.2 µM. Moreover, in data set [2] (acidic (acetate buffer pH 4–6)), the “Inter-Day RSD” value is listed as 11.91%, the “Inter-Day Mean Peak Area” value was determined as 2510.4, the “Intra-Day RSD” value is reported as 3.98% and the “Intra-Day Mean Peak Area” value worked out at 2751.5. Besides, in data set [2], the “Stability in aqueous solution (in words)” value is “some mild degradation of (−)-epicatechin was induced in acidic and basic environments”. In data set [2] (basic (glycine buffer pH 8–11)), the “Inter-Day RSD” value was 13.58%, the “Inter-Day Mean Peak Area” value was 2519.4, the “Intra-Day RSD” value stood at 4.85% and the “Intra-Day Mean Peak Area” value is listed as 2726.0. In addition, in data set [2] (neutral (PBS pH 7–8)), the “Inter-Day RSD” value turned out to be 7.56%, the “Inter-Day Mean Peak Area” value worked out at 2601.7, the “Intra-Day RSD” value is reported as 1.38% and the “Intra-Day Mean Peak Area” value was 2826.6. Moreover, in the data set on HaCaT cells [3], the “Cell viability (cytotoxic effect)” value is on record as “cells remained unaffected”. This compound also displayed a protein binding degree on VEGF protein of 50.3%. Further, the “Effect on VEGF-induced NF-κB activity (in words)” value (“Effect … (in words)” below) with NF-κB in RAW 264.3 cells is recorded as “suppressed in dose-dependent manners”.

As to `Cc1c(O)c(C)c2c(c1O)C(=O)C[C@@H](c1ccc(O)cc1)O2` [farrerol], the IC50 in the data set on HaCaT cells [1] (HaCaT) came out at 4.7 µM. In addition, in data set [2] (acidic (acetate buffer pH 4–6)), the “Inter-Day RSD” value amounted to 5.89%, the “Inter-Day Mean Peak Area” value is given as 38,145.2, the “Intra-Day RSD” value is reported as 4.09% and the “Intra-Day Mean Peak Area” value is on record as 31,803.7. The “Stability in aqueous solution (in words)” value in data set [2] was “relatively stable in diverse aqueous conditions”. Moreover, in data set [2] (basic (glycine buffer pH 8–11)), the “Inter-Day RSD” value amounted to 6.54%, the “Inter-Day Mean Peak Area” value is given as 35,412.4, the “Intra-Day RSD” value is 2.81% and the “Intra-Day Mean Peak Area” value is recorded as 33,332.4. In data set [2] (neutral (PBS pH 7–8)), the “Inter-Day RSD” value stood at 4.43%, the “Inter-Day Mean Peak Area” value is 36,478.1, the “Intra-Day RSD” value came out at 4.79% and the “Intra-Day Mean Peak Area” value is on record as 31,542.0. Besides, the “Cell viability (cytotoxic effect)” value with HaCaT cells [3] was “cells remained unaffected”. On VEGF protein, the protein binding degree came out at 58.3%.

Consider `COc1ccc(-c2coc3cc(O[C@@H]4O[C@H](CO)[C@@H](O)[C@H](O)[C@H]4O)ccc3c2=O)cc1` [ononin], for which the IC50 with HaCaT cells [1] (HaCaT cells, VEGF-induced) is 3.8 µM. In addition, in data set [2] (acidic (acetate buffer pH 4–6)), the “Inter-Day RSD” value is reported as 4.12%, the “Inter-Day Mean Peak Area” value is reported as 275,981.3, the “Intra-Day RSD” value is 1.93% and the “Intra-Day Mean Peak Area” value was 254,398.2. The “Stability in aqueous solution (in words)” value in data set [2] is given as “relatively stable in diverse aqueous conditions”. In addition, in data set [2] (basic (glycine buffer pH 8–11)), the “Inter-Day RSD” value is reported as 4.78%, the “Inter-Day Mean Peak Area” value is 274,514.7, the “Intra-Day RSD” value was 3.12% and the “Intra-Day Mean Peak Area” value is recorded as 273,422.8. Besides, in data set [2] (neutral (PBS pH 7–8)), the “Inter-Day RSD” value worked out at 3.65%, the “Inter-Day Mean Peak Area” value is 265,877.4, the “Intra-Day RSD” value is listed as 1.61% and the “Intra-Day Mean Peak Area” value was 313,200.4. Further, the “Cell viability (cytotoxic effect)” value with HaCaT cells [3] was “cells remained unaffected”. At VEGF protein, the protein binding degree came out at 53.4%. In the data set with NF-κB in RAW 264.3 cells, the “Effect … (in words)” value is reported as “suppressed in dose-dependent manners”.

As to `OC[C@H]1O[C@@H](Oc2cc(O)cc(/C=C/c3ccc(O)cc3)c2)[C@H](O)[C@@H](O)[C@@H]1O` [polydatin], the “Inhibition of VEGF-mediated biological activities (in words)” value in the data set with endothelial cells is given as “robust inhibition”.

Turning to `Oc1ccc(/C=C/c2cc(O)cc(O)c2)cc1` [resveratrol], the “Inhibition of VEGF-mediated biological activities (in words)” value in the data set on endothelial cells is on record as “robust inhibition”. Also, the “Tumor growth (in words)” value in the data set with tumor growth is given as “significantly suppress tumor growth”.

For the compound “avastin: Bevacizumab (avastin), first monoclonal antibody targeting the VEGF protein; positive control”, in the data set with NF-κB in RAW 264.3 cells, the “Effect … (in words)” value is listed as “attenuate the NF-κB signal”.
